Laboratory results: patent US20220281848A1, “PYRAZOLE-SUBSTITUTED PYRROLIDINONES AS HERBICIDES” (FMC Corporation, priority 2019, published 2022)

Test system: plants
Test: Test D pre-emergence, other plants of Tables D1 and D3
Format: in vivo
Conditions: for damage to plant (100=total damage to plant; 0=no damage to plant), SORVU: preemergent, 20 DAA; for damage to plant, ALOMY / damage to plant, AVEFA / damage to plant, BEAVA / damage to plant, BROTE / damage to plant, BRSNN / damage to plant, CHEAL / damage to plant, GALAP / damage to plant, HORVW / damage to plant, KCHSC / damage to plant, LOLPE / damage to plant, POAAN / damage to plant, POLCO / damage to plant, SINAR / damage to plant, STEME / damage to plant, VERPE: pre-emergence, 100=total damage, 0=no damage
Protocol: A formulation containing 50 g/L of the test chemical was prepared by dissolving the active ingredient in a mixture of organic solvents and emulsifier, details of which are provided in the table. This formulation was then mixed with a small, variable amount of acetone to aid dissolution, before addition of a 0.2% v/v aqueous solution of an adjuvant, as the aqueous diluent, to form an aqueous spray solution which contains a predetermined concentration of the active ingredient.
This aqueous spray solution was then sprayed onto plants including maize and wheat that had been seed treated with a herbicide safener, after one day's cultivation (for pre-emergence) or after about 12 days' cultivation (for post-emergence). The plants were grown from seeds sown in standard soil, placed in a glasshouse under controlled conditions (at 24/18° C. or 20/16° C., day/night; 16 h light; 65% humidity). After spray application the plants were then grown in a glasshouse under the same conditions and watered twice daily. After 15 d for post-emergence and 20 DAA for pre-emergence the test was evaluated (100=total damage to plant; 0=no damage to plant).

In the case of `CCn1nc([C@H]2CN(C)C(=O)[C@@H]2C(=O)Nc2cccc(F)c2F)c2c(F)cccc21` [Compound 7], the “damage to plant (100=total damage to plant; 0=no damage to plant), SORVU” value (rate 130) is reported as 20, the “damage to plant (100=total damage to plant; 0=no damage to plant), SORVU” value (rate 250) is reported as 70 and the “damage to plant (100=total damage to plant; 0=no damage to plant), SORVU” value (rate 500) is reported as 80. The “damage to plant, ALOMY” value (rate 15, 20 DAA) was 0, the “damage to plant, AVEFA” value (rate 15, 20 DAA) was 0 and the “damage to plant, BEAVA” value (rate 15, 20 DAA) was 0. The “damage to plant, BROTE” value (rate 15, 20 DAA) was 0, the “damage to plant, BRSNN” value (rate 15, 20 DAA) was 0 and the “damage to plant, CHEAL” value (rate 15, 20 DAA) was 0. The “damage to plant, GALAP” value (rate 15, 20 DAA) was 0, the “damage to plant, HORVW” value (rate 15, 20 DAA) was 0 and the “damage to plant, KCHSC” value (rate 15, 20 DAA) was 0. The “damage to plant, LOLPE” value (rate 15, 20 DAA) was 0, the “damage to plant, POAAN” value (rate 15, 20 DAA) was 0 and the “damage to plant, POLCO” value (rate 15, 20 DAA) was 0. The “damage to plant, SINAR” value (rate 15, 20 DAA) was 0, the “damage to plant, STEME” value (rate 15, 20 DAA) was 0 and the “damage to plant, VERPE” value (rate 15, 20 DAA) was 0. The “damage to plant, ALOMY” value (rate 30, 20 DAA) was 0, the “damage to plant, AVEFA” value (rate 30, 20 DAA) was 0 and the “damage to plant, BEAVA” value (rate 30, 20 DAA) was 0. The “damage to plant, BROTE” value (rate 30, 20 DAA) was 0, the “damage to plant, BRSNN” value (rate 30, 20 DAA) was 0 and the “damage to plant, CHEAL” value (rate 30, 20 DAA) was 0. The “damage to plant, GALAP” value (rate 30, 20 DAA) was 0, the “damage to plant, HORVW” value (rate 30, 20 DAA) was 0 and the “damage to plant, KCHSC” value (rate 30, 20 DAA) was 0. The “damage to plant, LOLPE” value (rate 30, 20 DAA) was 0, the “damage to plant, POAAN” value (rate 30, 20 DAA) was 0 and the “damage to plant, POLCO” value (rate 30, 20 DAA) was 0. For the same molecule, the “damage to plant, SINAR” value (rate 30, 20 DAA) was 0, the “damage to plant, STEME” value (rate 30, 20 DAA) was 0 and the “damage to plant, VERPE” value (rate 30, 20 DAA) was 0. For the same molecule, the “damage to plant, ALOMY” value (rate 60, 20 DAA) was 0, the “damage to plant, AVEFA” value (rate 60, 20 DAA) was 0 and the “damage to plant, BEAVA” value (rate 60, 20 DAA) was 0. For the same molecule, the “damage to plant, BROTE” value (rate 60, 20 DAA) was 0, the “damage to plant, BRSNN” value (rate 60, 20 DAA) was 0 and the “damage to plant, CHEAL” value (rate 60, 20 DAA) was 0. For the same molecule, the “damage to plant, GALAP” value (rate 60, 20 DAA) was 0, the “damage to plant, HORVW” value (rate 60, 20 DAA) was 0 and the “damage to plant, KCHSC” value (rate 60, 20 DAA) was 0. For the same molecule, the “damage to plant, LOLPE” value (rate 60, 20 DAA) was 0, the “damage to plant, POAAN” value (rate 60, 20 DAA) was 0 and the “damage to plant, POLCO” value (rate 60, 20 DAA) was 0. The “damage to plant, SINAR” value (rate 60, 20 DAA) was 0, the “damage to plant, STEME” value (rate 60, 20 DAA) was 0 and the “damage to plant, VERPE” value (rate 60, 20 DAA) was 0. The “damage to plant, ALOMY” value (rate 130, 20 DAA) was 0, the “damage to plant, AVEFA” value (rate 130, 20 DAA) was 10 and the “damage to plant, BEAVA” value (rate 130, 20 DAA) was 0. The “damage to plant, BROTE” value (rate 130, 20 DAA) was 0, the “damage to plant, BRSNN” value (rate 130, 20 DAA) was 0 and the “damage to plant, CHEAL” value (rate 130, 20 DAA) was 0. For the same molecule, the “damage to plant, GALAP” value (rate 130, 20 DAA) was 0, the “damage to plant, HORVW” value (rate 130, 20 DAA) was 0 and the “damage to plant, KCHSC” value (rate 130, 20 DAA) was 0. For the same molecule, the “damage to plant, LOLPE” value (rate 130, 20 DAA) was 0, the “damage to plant, POAAN” value (rate 130, 20 DAA) was 0 and the “damage to plant, POLCO” value (rate 130, 20 DAA) was 0. For the same molecule, the “damage to plant, SINAR” value (rate 130, 20 DAA) was 0, the “damage to plant, STEME” value (rate 130, 20 DAA) was 0 and the “damage to plant, VERPE” value (rate 130, 20 DAA) was 0. The “damage to plant, ALOMY” value (rate 250, 20 DAA) was 0, the “damage to plant, AVEFA” value (rate 250, 20 DAA) was 20 and the “damage to plant, BEAVA” value (rate 250, 20 DAA) was 0. For the same molecule, the “damage to plant, BROTE” value (rate 250, 20 DAA) was 0, the “damage to plant, BRSNN” value (rate 250, 20 DAA) was 0 and the “damage to plant, CHEAL” value (rate 250, 20 DAA) was 0. For the same molecule, the “damage to plant, GALAP” value (rate 250, 20 DAA) was 0, the “damage to plant, HORVW” value (rate 250, 20 DAA) was 0 and the “damage to plant, KCHSC” value (rate 250, 20 DAA) was 0. The “damage to plant, LOLPE” value (rate 250, 20 DAA) was 0, the “damage to plant, POAAN” value (rate 250, 20 DAA) was 0 and the “damage to plant, POLCO” value (rate 250, 20 DAA) was 0. For the same molecule, the “damage to plant, SINAR” value (rate 250, 20 DAA) was 0, the “damage to plant, STEME” value (rate 250, 20 DAA) was 0 and the “damage to plant, VERPE” value (rate 250, 20 DAA) was 0. The “damage to plant, ALOMY” value (rate 500, 20 DAA) was 0, the “damage to plant, AVEFA” value (rate 500, 20 DAA) was 50 and the “damage to plant, BEAVA” value (rate 500, 20 DAA) was 0. The “damage to plant, BROTE” value (rate 500, 20 DAA) was 0, the “damage to plant, BRSNN” value (rate 500, 20 DAA) was 0 and the “damage to plant, CHEAL” value (rate 500, 20 DAA) was 0. For the same molecule, the “damage to plant, GALAP” value (rate 500, 20 DAA) was 0, the “damage to plant, HORVW” value (rate 500, 20 DAA) was 0 and the “damage to plant, KCHSC” value (rate 500, 20 DAA) was 0. For the same molecule, the “damage to plant, LOLPE” value (rate 500, 20 DAA) was 0, the “damage to plant, POAAN” value (rate 500, 20 DAA) was 0 and the “damage to plant, POLCO” value (rate 500, 20 DAA) was 0. The “damage to plant, SINAR” value (rate 500, 20 DAA) was 0, the “damage to plant, STEME” value (rate 500, 20 DAA) was 0 and the “damage to plant, VERPE” value (rate 500, 20 DAA) was 0.
